Where two headings read alike, the source gives them in different places. Each block holds one compound with its values, some of them ahead of it.
What was measured:
B1R = B1R (Homo sapiens (Human), UniProt P46663); assay: Radioligand binding assay B1R (bradykinin B1 receptor); conditions: read-out: Inhibition [at 100 nM, %]
Procedure: (§1) In order to determine the binding affinity of compounds comprising a radiolabel for B1R, a radioligand binding assay was carried out. A radioligand is a radioactive biochemical substance that is used for diagnosis or for research-oriented study of cellular receptor systems of the body. In […] systems it is often used to quantify the binding of a test molecule to the binding site of radioligand. The higher the affinity of the molecule, the more radioligand is displaced from the binding site. The amount of bound radioligand can be measured by scintillation counting and thereby quantified. This assay is commonly used to calculate binding constants of molecules to receptors.
The B1R radioligand binding assay was performed by Cerep (Celle l'Evescault, France; Catalog reference 1189) according to (Jones et al., Eur J Pharmacol, 1999, 374, 423-433). B1R was prepared from CHO cells recombinantly expressing the human receptor and incubated with 0.35 nM [^3H]desArg^10-KD and serial dilutions of the test compounds. After 60 min incubation at 4° C. and washing to remove unbound ligand, bound radioactivity was measured by scintillation counting.

NTR1 [1] = biological target: T1, NTR1 (Homo sapiens (Human), UniProt P30989); assay: Radioligand binding assay NTR1 (example part II); conditions: 0.05 nM 125I-(Tyr3-neurotensin), 60 min at 4° C.; read-out: IC50 [nM] RLB
T1 sequence (P30989 whole entry): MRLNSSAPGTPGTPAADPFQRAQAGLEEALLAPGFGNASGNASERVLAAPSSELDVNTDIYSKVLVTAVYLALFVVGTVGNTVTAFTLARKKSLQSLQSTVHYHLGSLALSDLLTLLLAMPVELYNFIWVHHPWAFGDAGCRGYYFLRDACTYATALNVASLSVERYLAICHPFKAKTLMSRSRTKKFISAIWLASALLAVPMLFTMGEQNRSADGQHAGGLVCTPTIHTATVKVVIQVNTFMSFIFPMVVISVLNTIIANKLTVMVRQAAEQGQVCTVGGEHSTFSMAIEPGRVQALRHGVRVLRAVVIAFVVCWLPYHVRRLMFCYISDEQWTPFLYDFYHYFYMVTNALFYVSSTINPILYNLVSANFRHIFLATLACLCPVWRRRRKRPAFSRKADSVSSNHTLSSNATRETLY
Procedure: as §1, with “NTR1,” for “B1R,”
The NTR1 radioligand binding assay was performed by Cerep (Celle l'Evescault, France; Catalog reference 0109) according to Vita et al., FEBS Lett., 1993, 317, 139-142. NTR1 was prepared from CHO cells recombinantly expressing the human receptor and incubated with 0.05 nM ^125I-(Tyr^3-neurotensin) and serial dilutions of the test compounds. […] The result for each test compound is expressed as IC50 concentration and provides a measure for the affinity of the test compound for NTR1.

NTR1 [2] = biological target: T1, NTR1; assay: Functional Ca2+ mobilisation assay (example part II); format: cell-based; conditions: antagonist assay
How it was run: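 HT29 or NTR1-expressing HEK293 cells loaded with Ca5 dye for 1 h at 37 °C in buffer at pH 7.4, and fluorescence recorded for about 90 s after addition. EC50 derived from agonist serial dilutions; IC50 from antagonists pre-incubated 30 min before an EC80 agonist challenge.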

[3] = Plasma stability assay, human plasma; format: in vitro ADME
Procedure: (§2) The plasma stability assay was performed to measure the degradation of compounds of the present invention in plasma. This is an important characteristic of a compound as compounds, with the exception of pro-drugs, which rapidly degrade in plasma generally show poor in vivo efficacy.
(§3) The plasma was spiked with a 10 mM analyte solution in dimethyl sulfoxide to a final concentration of 10 μM, vortexed, and aliquotted to 50 μl samples. Two aliquots were stored at −20° C. until further treatment. Another two aliquots were incubated using an Eppendorf Thermomixer at 37° C. for 1, 4, and 24 hours. Sample clean-up was performed using a protein precipitation plate (Phenomenex Strata Impact, 64722-1-324-1) and using acetonitrile as precipitation agent. […] An aliquot of 10 μl was diluted with 90 μl 0.1% aqueous trifluoroacetic acid solution. The determination of the analyte in the clean sample solutions was performed on a Thermo TSQ Quantum Ultra triple quadrupole mass spectrometer equipped with a thermo Surveyor HPLC. The chromatographic separation was carried out on a Phenomenex Kinetex XB-C18 HPLC column (50×2 mm, […] particle size) with gradient elution using a mixture of 0.01% trifluoroacetic acid and 0.05% formic acid in water as eluent A and methanol as eluent B (20% B to 100% in 8 min, 400 μl/min, 40° C.). For mass spectrometric detection the selected reaction monitoring (SRM) was used.
(§4) Quantitation was performed by external matrix calibration using an internal standard.

[4] = Plasma stability assay, mouse plasma; format: in vitro ADME
Procedure: as §2, §3, §4

[5] = in vivo; cited from earlier work
NTR1 [6] = biological target: T1, NTR1; assay: Functional Ca2+ mobilisation assay (example part I); format: cell-based
HT29 cells = conditions: 48 h
CCR1 (h) = biological target: T2, CCR1 (h) (Homo sapiens (Human), UniProt P32246); assay: ExpresSProfile: C-C chemokine receptor type 1, agonist radioligand; format: binding; conditions: Reference Compound
T2 sequence (P32246 whole entry, looked up): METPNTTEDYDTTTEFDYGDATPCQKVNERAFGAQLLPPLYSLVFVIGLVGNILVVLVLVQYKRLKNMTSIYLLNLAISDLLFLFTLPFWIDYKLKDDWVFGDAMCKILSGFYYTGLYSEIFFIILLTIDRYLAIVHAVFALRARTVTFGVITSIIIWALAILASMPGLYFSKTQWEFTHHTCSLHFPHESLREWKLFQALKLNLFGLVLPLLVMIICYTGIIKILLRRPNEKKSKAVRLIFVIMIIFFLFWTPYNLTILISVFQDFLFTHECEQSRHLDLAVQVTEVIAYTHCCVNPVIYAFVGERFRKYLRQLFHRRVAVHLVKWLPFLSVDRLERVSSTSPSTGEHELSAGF

B1R, sequence (P46663 whole entry): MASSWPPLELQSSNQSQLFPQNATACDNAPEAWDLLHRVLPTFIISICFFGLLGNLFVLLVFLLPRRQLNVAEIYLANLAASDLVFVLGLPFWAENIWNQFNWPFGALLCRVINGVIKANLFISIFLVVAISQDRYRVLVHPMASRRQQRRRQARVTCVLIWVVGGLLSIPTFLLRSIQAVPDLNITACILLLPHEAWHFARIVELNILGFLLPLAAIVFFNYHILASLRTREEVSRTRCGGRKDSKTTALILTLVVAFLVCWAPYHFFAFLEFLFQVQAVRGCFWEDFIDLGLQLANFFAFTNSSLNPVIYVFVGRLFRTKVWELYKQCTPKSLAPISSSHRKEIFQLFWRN

Compound: CC[C@H](C)[C@H](NC(=O)[C@@H](Cc1ccc2ccccc2c1)NC(=O)[C@H](CO)NC(=O)[C@](C)(Cc1ccccc1)NC(=O)CNC(=O)[C@@H]1CCCN1C(=O)[C@@H]1C[C@@H]2CCCC[C@@H]2N1C(=O)[C@H](CCCNC(=N)N)NC(=O)[C@H](CCCN)NC(=O)CCC(=O)NCCCOCCOCCOCCCNC(=O)[C@H](CCCCNC(=O)CN1CCN(CC(=O)O)CCN(CC(=O)O)CCN(CC(=O)O)CC1)NC(=O)CCC(=O)NCCCOCCOCCOCCCNC(=O)CCCC(=O)N(C)CCCN(C)CCCN(C)C(=O)c1ccc(-n2nc(C(=O)NC3(C(=O)O)C4CC5CC(C4)CC3C5)cc2-c2c(OC)cccc2OC)c(C(C)C)c1)C(=O)O (stereo partly drawn) [(27), 1206-Glutar-Ttds-Lys(DOTA)-Ttds-GABA-Orn-Arg-Oic-Pro-Gly-Amf-Ser-nal-Ile-OH]
- inhibition at 0.1 µM (B1R): 17%

- IC50 (NTR1 [1]): 3.4 nM
- IC50 (NTR1 [2]): 12.6 nM
- stability in human plasma [3]: highly stable
- % remaining after 24 h incubation, Human plasma ([3]; 10 μM, 37° C., 24 h): >70%
- stability in mouse plasma [4]: highly stable
- % remaining after 24 h incubation, Mouse plasma ([4]; 10 μM, 37° C., 24 h): >60%
Compound: COc1cccc(OC)c1-c1cc(C(=O)NC2(C(=O)O)C3CC4CC(C3)CC2C4)nn1-c1ccc(C(=O)N(CCCNC(=O)CN2CCN(CC(=O)O)CCN(CC(=O)O)CCN(CC(=O)O)CC2)CCCN(C)C)cc1C(C)C (centres unmarked) [(Va), 2-{[1-{4-[(3-DOTA-amino-propyl)-(3-dimethylamino-propyl)-carbamoyl]-2-isopropyl-phenyl}-5-(2,6-dimethoxy-phenyl)-1H-pyrazole-3-carbonyl]-amino}-adamantane-2-carboxylic acid]

Compound: COc1cccc(OC)c1-c1cc(C(=O)NC2(C(=O)O)C3CC4CC(C3)CC2C4)nn1-c1ccc(C(=O)N(C)CCCN(C)C)cc1C(C)C (centres unmarked) [SR142948, 2-[(5-(2,6-Dimethoxy-phenyl)-1-{4-[(3-dimethylamino-propyl)-methyl-carbamoyl]-2-isopropyl-phenyl}-1H-pyrazole-3-carbonyl)-amino]-adamantane-2-carboxylic acid]
- blood-brain barrier crossing [5]: cross the blood-brain barrier

Compound: COc1cccc(OC)c1-c1cc(C(=O)NC2(C(=O)O)C3CC4CC(C3)CC2C4)nn1-c1ccc(C(=O)N(C)CCCN(C)CCCN(C)C(=O)CCCC(=O)NCCCCC(NC(=O)CCC(=O)NCCCOCCOCCOCCCNC(=O)C(CCCCNC(=O)CCC(=O)O[C@@H](C(=O)O[C@H]2C[C@@]3(O)[C@@H](OC(=O)c4ccccc4)[C@@H]4[C@]5(OC(C)=O)CO[C@@H]5C[C@H](O)[C@@]4(C)C(=O)[C@H](OC(C)=O)C(=C2C)C3(C)C)[C@@H](NC(=O)c2ccccc2)c2ccccc2)NC(=O)CCC(=O)NCCCOCCOCCOCCCNC(=O)CCCC(=O)N(C)CCCN(C)CCCN(C)C(=O)c2ccc(-n3nc(C(=O)NC4(C(=O)O)C5CC6CC(C5)CC4C6)cc3-c3c(OC)cccc3OC)c(C(C)C)c2)C(N)=O)cc1C(C)C (some centres unmarked) [(20), 1206-Glutar-Ttds-Lys(Taxol-Succinyl)-Ttds-(ε-Lys-NH2)-Glutar-1206]
- EC50 (NTR1 [6]): > 50000 nM
- IC50 (NTR1 [6]): 32 nM
- Concentration [μM] at 20% cytotoxicity (HT29 cells; HT29 cells, LDH in supernatant): 18 µM

Compound: COc1cccc(OC)c1-c1cc(C(=O)NC2(C(=O)O)C3CC4CC(C3)CC2C4)nn1-c1ccc(C(=O)N(C)CCCN(C)CCCN(C)C(=O)CCCC(=O)NCCCOCCOCCOCCCNC(=O)CCC(=O)N[C@@H](CCCCNC(=O)CN2CCN(CC(=O)O)CCN(CC(=O)O)CCN(CC(=O)O)CC2)C(=O)NCCCOCCOCCOCCCNC(=O)CCC(=O)N[C@@H](CCCCN)C(=O)N[C@@H](CCCNC(=N)N)C(=O)N2CCC[C@H]2C(=O)N2C[C@H](O)C[C@H]2C(=O)NCC(=O)N[C@@H](CC2CCCCC2)C(=O)N[C@@H](CO)C(=O)N2CCC[C@H]2C(=O)N[C@@H](CC(C)C)C(=O)O)cc1C(C)C (stereo partly drawn) [(26), 1206-Glutar-Ttds-Lys(DOTA)-Ttds-GABA-Lys-Arg-Pro-Hyp-Gly-Cha-Ser-Pro-Leu-OH]
- inhibition at 0.1 µM (B1R): 20%

Compound: CC(=O)O[C@H]1C(=O)[C@@]2(C)[C@H]([C@H](OC(=O)c3ccccc3)[C@]3(O)C[C@H](OC(=O)[C@H](O)[C@@H](NC(=O)c4ccccc4)c4ccccc4)C(C)=C1C3(C)C)[C@]1(OC(C)=O)CO[C@@H]1C[C@@H]2O [Paclitaxel, reference compound]
- Concentration [μM] at 20% cytotoxicity (HT29 cells; human): 70 µM

- nH Ref (CCR1 (h)): 1.1
Compound: MIP-1alpha

Reference: patent publication US10799605B2 (3B PHARMACEUTICALS GMBH, priority 2014, dated 2020)
